Consider three compounds from publication PMC9780203, “Synthesis, molecular docking, and in-vitro studies of pyrimidine-2-thione derivatives as antineoplastic agents via potential RAS/PI3K/Akt/JNK inhibition in breast carcinoma cells” (Scientific Reports, 2022).

“Also recorded” adds a separate entry of the source.

By melting point is commonly meant the temperature, or range, at which the solid turns liquid. As usually defined, the IC50 is the concentration that inhibits the measured activity by half.

Data set [1] deals with MCF-7 breast cancer cells. Nature of the data set: MTT cell viability, MCF-7. Type of data set: cell-based. The note with it: Homo sapiens, MCF7, 48 h, mean ± SE. As to the method: (§1) 3-(4,5-dimethylthiazol-2-yl)-2,5-diphenyltetrazolium bromide (MTT) assay was used to measure cell viability according to a prior study. The cells were grown in 96-well plates at a density of 1 × 10^4 cells/well, treated for 48 h with varied 5a (0–200 µM) or the reference drug DOX (0–100 µM) dosages, and then exposed to analysis. The culture medium was taken out after 48 h of incubation, and the cells were given two gentle washes with 1× ice-cold phosphate-buffered saline (PBS). The MTT (10×) has been diluted to a 1× solution in the culture medium (1 volume 10× MTT in 9 volumes medium) and 200 μl was added to each well. The microplate has been kept in a cell culture incubator at 37 °C for 4 h. Afterthat, 180 μl of the MTT solution was taken out and 100 μl of DMSO was put to each well. The microplate was incubated for 15 min with shaking at room temperature. The absorbance of each well was ultimately measured at 630 nm using a Model 680 microplate reader (Bio-Rad, CA, USA)[33].

Data set [2] deals with normal human amniotic WISH cells. As to the kind of experiment: MTT cell viability, normal WISH cells. Type of data set: cell-based. The note with it: 48 h, mean ± SE, read-out: IC50, normal cell line (WISH). Here is the method:
as §1

The test system of data set [3] is MDA-MB-231 breast cancer cells. Nature of the data set: MTT cell viability, MDA-MB-231. Type of data set: cell-based. The note with it: Homo sapiens, 48 h, mean ± SE. Here is the method: as §1
Data set [4] concerns Caco-2 colorectal cancer cells. Nature of the data set: MTT cell viability, Caco-2. The data set is classed as cell-based. As to conditions: Homo sapiens, 48 h, mean ± SE. Here is the method:
as §1

In data set [5] the test system is PANC-1 pancreatic cancer cells. Nature of the data set: MTT cell viability, PANC-1. Type of data set: cell-based. The note with it: Homo sapiens, 48 h, mean ± SE. As to the method:
as §1

Data set [6] concerns MCF-7 cells. Nature of the data set: Cell morphology by inverted light microscope. Type of data set: cell-based, human. As to conditions: IC50 dose, 48 h. Here is the method: Using an inverted light microscope (Olympus, USA), the morphological alterations of the treated and untreated cells were evaluated and documented after 48 h of incubation.
Data set [7] relates to MCF-7 cells. Nature of the data set: Cell cycle analysis by flow cytometry (PI). The data set is classed as cell-based, human. The note with it: MCF-7, IC50 dose, 48 h; untreated control 8.6%. Here is the method: Using flow cytometry, cell cycle analysis was carried out via a documented method of[35] with a few changes. After trypsinization, the MCF-7 cells were centrifuged at 4500 rpm for 5 min, followed by two washings, resuspension in 1× PBS, fixation with ice-cold absolute ethanol, and incubation at 20 °C for 24 h. Following two PBS washes, the cells were then resuspended in (0.05 mg/mL) propidium iodide (PI)[32] solution containing 50 µL (0.2 mg/mL) of RNase A, and 0.1% v/v Triton X-100 in PBS. Then, the cells were incubated at room temperature for 30–60 min in the dark. Finally, the pellet was washed with 1⤫ PBS and resuspended in 300 µL 1× PBS, and subjected to analysis on Accuri C6 flow cytometer (Becton Dickinson, Franklin Lake, BD, USA) equipped with PE X FL2 channels.
(A flow cytometer gives signals particle by particle.)

The subject of the next data set is PI3K. As to the kind of experiment: RT-PCR analysis of PI3K gene expression in MCF-7. The data set is classed as cell-based, human. The note with it: MCF-7, IC50 dose, 48 h, vs untreated cells. Here is the method: (§2) The total RNA was isolated from the MCF-7 cells using Trizol (Cat# R2072, ZYMO […] CORP. USA) according to the manufacturer’s instructions. Its quantity and quality were assessed using a Beckman dual spectrophotometer. The cDNA was performed using a miScript Reverse Transcription Kit (QIAGEN) Kit (218061) and a miScript SYBR Green PCR Kit was used for mRNA detection with quantification (218073). Reverse transcription was running on a StepOne system (Applied Biosystems, Foster City, CA, USA) in a total volume of 10 μL containing 5 μL of the miScript RT enzyme and […]. Real-time PCR for mRNA was performed on the same system in a total volume of 20 μL containing 10 μL of a 2× QuantiTect® SYBR Green PCR Master Mix and 10 ng of the cDNA template. The PCR thermal cycling conditions for the mRNA were 2 min at 50 °C, 30 s at 95 °C, 40 cycles of 95 °C for 5 s, and 60 °C for 34 s. The expression of the mRNA target genes was normalized to the expression of human GAPDH quantified using the 2^−ΔΔCt method. Table 1 contains a list of the primers used in the research.

The next data set has as its system Akt. As to the kind of experiment: RT-PCR analysis of Akt gene expression in MCF-7. As to conditions: MCF-7, IC50 dose, 48 h, vs untreated cells. The data set is classed as cell-based, human. Here is the method: as §2
For the next data set, the system named is p21. Nature of the data set: RT-PCR analysis of p21 gene expression in MCF-7. The data set is classed as cell-based, human. As to conditions: MCF-7, IC50 dose, 48 h, vs untreated cells. As to the method:
as §2

Data set [8] relates to phospho-RAS-GRF1 (Ser916). As to the kind of experiment: Immunoblotting of p-RAS in MCF-7. The data set is classed as cell-based, human. The note with it: MCF-7, IC50 dose, 48 h, western blot, vs untreated cells. Here is the method: (§3) Western blot analysis was conducted according to[37]. The ReadyPrepTM protein extraction kit (total protein) provided by Bio-Rad Inc (Cat #163-2086) was used to isolate proteins according to the manufacturer’s instructions. The Bradford protein assay kit (SK3041) from Bio Basic Inc. (Markham Ontario L3R 8T4 Canada) was then used to perform quantitative protein analysis. Afterward, a 20 μg protein concentration of each sample was subjected to 12% sodium dodecyl sulfate–polyacrylamide gel electrophoresis (SDS-PAGE), followed by transfer to polyvinylidene fluoride (PVDF) membranes (BioRad). Polyacrylamide gels were performed using the TGX Stain-Free™ FastCast™ Acrylamide Kit (SDS-PAGE) provided by Bio-Rad Laboratories Inc. (Cat # 161-0181). The SDS-PAGE TGX Stain-Free FastCast was prepared according to the manufacturer's instructions. The membrane was blocked in tris-buffered saline with Tween 20 (TBST) buffer and 3% bovine serum albumin (BSA) for 1 h at room temperature followed by probing with primary antibodies against phospho-RAS-GRF1 (Ser916) (1: 1000, Cell Signaling Technology, #3321), phospho-SAPK/JNK (Thr183/Tyr185) (1:1000, Cell Signaling Technology, #9251), p53 (1:1000, Cell Signaling Technology, #9282) and β-actin (1:3000, Cell Signaling Technology, #8457). […]
Background: A western blot detects proteins with antibodies after separation by electrophoresis.

For data set [9], the system named is phospho-SAPK/JNK (Thr183/Tyr185). Nature of the data set: Immunoblotting of p-JNK in MCF-7. Type of data set: cell-based, human. As to conditions: MCF-7, IC50 dose, 48 h, western blot, vs untreated cells. As to the method:
as §3

A further data set concerns p53. Nature of the data set: Immunoblotting of p53 in MCF-7. Type of data set: cell-based, human. As to conditions: MCF-7, IC50 dose, 48 h, immunoblot, vs untreated cells. Here is the method:
as §3

`COc1cc(/C=C/C(=O)C2=C(C)NC(=S)NC2c2cccs2)ccc1O` (stereo not shown) [2b, [E]-3-(4-hydroxy-3-methoxyphenyl)-1-(6-methyl-4-(thiophen-2-yl)-2-thioxo-1,2,3,4-tetrahydropyrimidin-5-yl)prop-2-en-1-one]: the melting point stood at 258 °C.
Consider `COc1cccc2c1C(=O)c1c(O)c3c(c(O)c1C2=O)C[C@@](O)(C(=O)CO)C[C@@H]3O[C@H]1C[C@H](N)[C@H](O)[C@H](C)O1` [DOX, Doxorubicin, reference compound], for which the IC50 in data set [1] was 2.26 ± 1.4 µM; in [2], 24.5 ± 2.1 µM.
For `COc1cc(C2CC(C3=C(C)NC(=S)NC3c3ccc(N(C)C)cc3)=NN2c2ccccc2)ccc1O` (stereo not shown) [compound 5a, 4-(4-(dimethylamino)phenyl)-5-(5-(4-hydroxy-3-methoxyphenyl)-1-phenyl-4,5-dihydro-1H-pyrazol-3-yl)-6-methyl-3,4-dihydropyrimidine-2(1H)-thione], the IC50 is 2.62 ± 1.6 µM in [1]; 6.78 ± 2.2 µM in data set [3]; 14.8 ± 2.5 µM in data set [4]; 23.6 ± 2.4 µM in [5]; 180 ± 2.7 µM in data set [2]. The “Morphological features of MCF-7 cells” value in the data set on MCF-7 cells [6] is “detectable morphological signs of apoptosis”. Moreover, the “Percentage of cells at sub-G0/G1” value in the data set with MCF-7 cells [7] turned out to be 48.5%. Besides, the “mRNA transcript level of PI3K” value in the data set with PI3K is given as “significantly reduced; also recorded: downregulated”. Besides, the “mRNA transcript level of Akt” value with Akt is listed as “significantly reduced; also recorded: downregulated”. Also, the p21 gene expression entry in the data set with p21 was “significantly upregulated”. Further, the “levels of p-RAS proteins” value in data set [8] is on record as “significantly decreased”. The p-JNK protein expression entry in [9] is “significant reduction”. Further, the p53 protein expression result in the data set on p53 was “significant elevation”.
